{"source": "ChEMBL document CHEMBL4732226", "about": "“Discovery of a potent G-protein-coupled receptor 119 agonist for the treatment of type 2 diabetes” (Bioorg Med Chem, 2021)", "key": {"[1]": {"molecular_target": "T1, Glucose-dependent insulinotropic receptor (Homo sapiens) (UniProt Q8TDV5)", "T1 sequence (whole entry)": "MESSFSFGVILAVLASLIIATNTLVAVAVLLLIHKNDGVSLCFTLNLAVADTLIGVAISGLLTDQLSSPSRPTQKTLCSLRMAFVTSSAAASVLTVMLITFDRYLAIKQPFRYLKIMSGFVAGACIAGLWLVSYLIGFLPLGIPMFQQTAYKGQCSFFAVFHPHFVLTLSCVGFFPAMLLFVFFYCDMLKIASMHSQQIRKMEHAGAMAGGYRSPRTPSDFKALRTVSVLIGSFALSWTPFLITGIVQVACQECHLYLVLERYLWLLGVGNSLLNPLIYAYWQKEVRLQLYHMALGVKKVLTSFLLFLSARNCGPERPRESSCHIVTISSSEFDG", "assay": "Agonist activity at human GPR119 stably transfected in CHO-K1 cells assessed as increase in cAMP stimulation after 1 hr by enzyme immunoassay relative to AR231453", "assay_type": "functional, cell-based", "conditions": "filed as agonist"}, "[2]": {"assay": "Toxicity in male Wistar rat assessed as ratio of brain to body weight at 400 mg/kg, po after 28 days (reference value: 0.766 +/- 0.038)", "assay_type": "organism-based", "conditions": "in vivo, 672 h, time 28 day"}}}
{"smiles": "Cc1c(Oc2cccc(/C=C3\\SC(=O)NC3=O)c2)ncnc1OC1CCN(C(=O)OC(C)(C)C)CC1", "values": [{"measurement": "Emax", "setting": "[1]", "value": 160, "unit": "%"}, {"measurement": "Ratio", "setting": "[2]", "value": 0.809}]}
